From patent US6608069B1, “Phenyl xanthine derivatives” (SmithKline Beecham Corporation, priority 1998, dated 2003)

How the values were obtained:
male Lewis rats = assay: Carrageenan Pleurisy Assay; format: in vivo; settings: carrageenan 0.075 mg/rat, harvested four hours after carrageenan; for % Inhibition Cells: inflammatory cells (neutrophils) in pleural exudate vs vehicle control; for % Inhibition Exudate: pleural edema (exudate) vs vehicle control
Procedure: 2) Carrageenan Pleurisy Assay
The antiinflammatory activity of compounds of the invention was determined by the procedure of Vinegar, R, et al., Proc. Soc. Exp. Biol. Med., 1981, 168, 24-32, using male Lewis rats of 150±20 grams. The carrageenan dose was 0.075 mg/rat. Pleural exudate was harvested four hours after injection of carrageenan. Acute antiinflammatory activity was determined by inhibition of pleural edema and inflammatory cells (neutrophils) from a negative (vehicle) control group.

[1] = system: cytokine-stimulated human umbilical vein endothelial cells; assay: Cell Adhesion Assay: adherence of fluorescently-labelled leukocytes to endothelial cell monolayers; format: cell-based; settings: inhibition of cytokine-stimulated adhesion minus basal adhesion; calcein-AM labelled leukocytes on HUVEC monolayers
Method in brief: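 HUVEC monolayers were stimulated with cytokine, and adhesion of calcein-AM-labelled leukocytes was quantified by fluorescence. Inhibition was calculated on cytokine-stimulated adhesion after subtracting basal adhesion of unstimulated cells.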

| SMILES | % Inhibition Cells (male Lewis rats) | % Inhibition Exudate (male Lewis rats) | IC50 [1] | melting point |
| --- | --- | --- | --- | --- |
| CCCn1c(=O)n(CC2CCCCC2)c(=O)c2nc(-c3ccc(/C=C/C(=O)NCCOCCOCCOCCOCCOCCOCCOCCOCCOC)cc3)[nH]c21 [Example 74, (E)-4-((1-cyclohexylmethyl-3-propyl)-1,2,3,6-tetrahydro-2,6-dioxo-9H-purin-8-yl)cinnamic Acid Nonaethylene Glycol Methyl Ether Amide] | 85% | 70% | 360 ± 160 nM |  |
| COCCOCCOCCOCCOCCOCCOCCOCCOCCN(C)C(=O)/C=C/c1ccc(-c2nc3c(=O)n(CC4CCCCC4)c(=O)n(CC4CCCCC4)c3[nH]2)cc1 [Example 68, (E)-4-(1,3-Bis(cyclohexylmethyl)-1,2,3,6-tetrahydro-2,6-dioxo-9H-purin-8-yl) cinnamic Acid N-methyl Nonaethylene Glycol Methyl Ether Amide] | 92% | 80% | 72 ± 19 nM |  |
| COCCOCCOCCOCCOCCOCCOCCOCCOCCOC(=O)/C=C/c1ccc(-c2nc3c(c(=O)n(CC4CCCCC4)c(=O)n3CC3CCCCC3)n2C)cc1 [Example 79, (E)-4-(1,3-Bis(cyclohexylmethyl)-2,3,6,7-tetrahydro-2,6-dioxo-7-methyl-1H-purin-8-yl)cinnamic Acid Nonaethylene Glycol Methyl Ether Ester] | 55% | 7% | 3 ± 1 nM |  |
| COCCOCCOCCOCCOCCOCCOCCOCCOCCOC(=O)/C=C/c1ccc(-c2nc3c(=O)n(Cc4ccccc4)c(=O)n(Cc4ccccc4)c3[nH]2)cc1 [Example 34] | 20% | 59% | < 0.1 nM |  |
| CCCn1c(=O)n(CC2CCCCC2)c(=O)c2nc(-c3ccc(/C=C/C(=O)OCCOCCOCCOCCOCCOCCOCCOCCOCCOC)cc3)[nH]c21 [Example 49, (E)-4-((1-cyclohexylmethyl-3-propyl)-1,2,3,6-tetrahydro-2,6-dioxo-9H-purin-8-yl)cinnamic Acid Nonaethylene Glycol Methyl Ether Ester] | 28% | 53% | 13 ± 9 nM |  |
| CCCn1c(=O)c2nc(-c3ccc(/C=C/C(=O)NCCOCCOCCOCCOCCOCCOCCOCCOCCOC)cc3)[nH]c2n(CC2CCCCC2)c1=O [Example 73, (E)-4-((1-propyl-3-cyclohexylmethyl)-1,2,3,6-tetrahydro-2,6-dioxo-9H-purin-8-yl)cinnamic Acid Nonaethylene Glycol Methyl Ether Amide] | 0% | 0% | > 1000 nM |  |
| Cn1c(=O)c2nc(-c3ccc(/C=C/C(=O)O)cc3)[nH]c2n(C)c1=O (hydrate or solvate) [Example 14, (E)-4-(1,3-bis(methyl)-1,2,3,6-tetrahydro-2,6-dioxo-9H-purin-8-yl)cinnamic Acid] |  |  |  | > 350 °C |
| COCCOCCOCCOCCOCCOCCOCCOCCOCCOC(=O)/C=C/c1ccc(-c2nc3c(=O)n(CC4CCCC4)c(=O)n(CC4CCCC4)c3[nH]2)cc1 [Example 36, (E)-4-(1,3-bis(cyclopentylmethyl)-1,2,3,6-tetrahydro-2,6-dioxo-9H-purin-8-yl)cinnamic Acid Nonaethylene Glycol Methyl Ether Ester] | 47% | 38% | 11 ± 8 nM |  |
| CCCn1c(=O)c2nc(-c3ccc(/C=C/C(=O)OCCOCCOCCOCCOCCOCCOCCOCCOCCOC)cc3)[nH]c2n(CC2CCCCC2)c1=O [Example 44, (E)-4-((1-propyl-3-cyclohexylmethyl)-1,2,3,6-tetrahydro-2,6-dioxo-9H-purin-8-yl)cinnamic Acid Nonaethylene Glycol Methyl Ether Ester] | 44% | 24% | 20 ± 10 nM |  |
